Reference: patent US20210270852A1, “Methods of Detecting Neuroaxonal Dystrophy Disorders Associated with Vitamin E Deficiency and Uses Thereof” (The Regents of the University of California, priority 2018, published 2021)

How the values were obtained:
[1] = Reference values of tocopherols, tocotrienols and metabolites in healthy grazing Thoroughbred horses (LC-MS); assay type: in vivo, horse
Protocol: (§1) In particular, the levels of a panel of tocopherols and tocopherol metabolites were assessed by liquid chromatography-mass spectrometry (LC-MS) in samples obtained from eNAD affected horses and matched healthy controls. Reference ranges of α-TOH, γ-TOH, α-TOT, γ-TOT, α-CEHC, γ-CEHC, and α-CMBHC were determined from serum, plasma and urine samples obtained from 16 healthy adult Thoroughbred horses on pasture. Next a supplementation trial was performed employing samples from eNAD-affected horses and neurologically normal age and sex-matched controls. Levels were assessed at baseline and after administration of bioavailable RRR-alpha-tocopherol according to the sample collection schedule described (see e.g., FIG. 2).
(§2) Analytes were simultaneously quantified via ultra-performance liquid chromatography-tandem mass spectrometry (LC-MS). LC-MS analysis was carried out using a Bruker EVOQ LC-TQ Mass Spectrometer coupled with a Bruker Advance HPLC system (Bruker Corp, Freemont, Calif., USA). Mass spectral data for α- and γ-tocopherols and α- and γ-tocotrienols were acquired in the positive ion electrospray ionization (ESI) mode with the following retention times (RT) and scan events: γ-tocotrienol—RT 11.65 min, MRM 411.0>151.0 (CE 19.0V), α-tocotrienol—RT 12.0 min, MRM 425.1>165.1 (CE 20.0V), γ-tocopherol—RT 13.3 min, MRM 417.2>151.0 (CE 25.0V), 5-methyl-D3,7-methyl-D3 (TD6)—RT 13.8 min, MRM 437.4>171.0 (CE 27.0V), and α-tocopherol—RT 13.8 min, MRM 431.2>165.0 (CE 25.0V). Mass spectral data for α- and γ-CEHC and α-CMBHC were acquired in the negative ion ESI mode with the following retention times (RT) and scan events: α-CMBHC—RT 7.45 min, MRM 319.1>150.1 (CE 22.0V), α-CEHC—RT 5.70 min, MRM 277.0>233.1 (CE 14.0V), and γ-CEHC—RT 5.30 min, MRM 263.1>219.1 (CE13.0V). Quantification was carried out using a 10-point calibration curve covering the range from 0.1 ng/mL to 5,000 ng/mL and linear regression. Each level of calibration standard contained the internal standard TD6 at 100 ng/mL and CUDA at 2 ng/mL, matching their final concentrations in the analysis samples.

[2] = Initial trials: detected range of plasma vitamin E metabolites (LC-MS); assay type: in vivo, horse
Protocol: as §2
The limit of detection (ng/mL) and detected range (ng/mL), respectively, for each plasma vitamin E metabolite measured in these initial trials were as follows: α-TOH (0.1; 500-1000), γ-TOH (0.2; 10-15), α-tocotrienol (0.2; 0.2-0.6), γ-tocotrienol (0.2; 5-10), α-CMBHC (<0.05; 0.1-0.4), γ-CEHC (<0.05; 0.2-0.6), and α-CEHC (<0.05; 0.1-0.2).

[3] = earlier study; cited from earlier work
[4] = Supplementation trial: serum levels in eNAD-affected and control horses at baseline and after bioavailable RRR-alpha-tocopherol (LC-MS); assay type: in vivo, horse
Protocol: This example describes investigations into the role of metabolism of α-TOH in horses affected with eNAD/EDM. Accordingly, the rate of α-TOH and γ-TOH metabolism was determined through the measurement of CEHCs in healthy and eNAD-affected horses following α-TOH supplementation.
as §1, §2
Simultaneous quantification of α-TOH, γ-TOH, α-tocotrienol, γ-tocotrienol, α-CEHC, γ-CEHC, and α-CMBHC has not been previously performed in the horse. Data was Log-transformed. Correspondence between sample types (e.g., plasma vs. serum) was evaluated and statistical testing by Mixed-model ANOVA was performed (fixed variables=disease, time; randomized variable=horse; 2-way interactions; p<0.05).

[5] = serum, healthy grazing TBs, tocotrienols

With `Cc1c(C)c2c(c(C)c1O)CC[C@@](C)(CCC[C@H](C)CCC[C@H](C)CCCC(C)C)O2` [α-TOH, alpha-tocopherol, reference compound] the “mean value for healthy grazing TBs” value ([1]; in vivo) was 4292±892, the “median value for healthy grazing TBs” value ([1]; in vivo) was 4348 and the “range of values for healthy grazing TBs” value ([1]; in vivo) was 2855-6299. The “detected range of plasma vitamin E metabolite” value (“detected range” below) ([2]; in vivo) was 500 to 1000 ng/mL, the “α-TOH absorption indices, eNAD-affected vs unaffected horses” value [3] was “no significant differences” and the “rate of α-TOH metabolism in eNAD horses vs control horses” value ([4]; in vivo) was “faster rates than control horses”.
In the case of `Cc1c(O)cc2c(c1C)O[C@](C)(CCC[C@H](C)CCC[C@H](C)CCCC(C)C)CC2` [γ-TOH, gamma-tocopherol], the “mean value for healthy grazing TBs” value ([1]; Thoroughbred, horse, in vivo) is reported as 27.1±9.82, the “median value for healthy grazing TBs” value ([1]; Thoroughbred, horse, in vivo) is reported as 25.6 and the “range of values for healthy grazing TBs” value ([1]; Thoroughbred, horse, in vivo) is reported as 10.3-44.7. The “detected range” value ([2]; horse, in vivo) was 10 to 15 ng/mL.
For `Cc1c(C)c2c(c(C)c1O)CCC(C)(CCCC(C)C(=O)O)O2` (stereo not drawn) [α-CMBHC, 2-(4-Carboxy-4-methylbutyl)-6-hydroxy-2,5,7,8-tetramethylchroman], the “mean value for healthy grazing TBs” value ([1]; Thoroughbred, horse, in vivo) was 0.72±0.37, the “median value for healthy grazing TBs” value ([1]; Thoroughbred, horse, in vivo) was 0.6 and the “range of values for healthy grazing TBs” value ([1]; Thoroughbred, horse, in vivo) was 0.32-1.71. For the same compound, the “detected range” value ([2]; horse, in vivo) was 0.1 to 0.4 ng/mL, the “Serum α-CMBHC (median, range)” value ([4]; horse, in vivo, 56 day) was 0.32 (0.12-0.40) ng/mL and the concentration at 56 day ([4]; horse, in vivo, Serum α-CMBHC (median, range)) was 0.28 ng/mL.
With `Cc1c(C)c2c(c(C)c1O)CCC(C)(CCC(=O)O)O2` (stereo not drawn) [α-CEHC, alpha-carboxyethyl-hydroxychroman] the “mean value for healthy grazing TBs” value ([1]; in vivo) was 0.33±0.12, the “median value for healthy grazing TBs” value ([1]; in vivo) was 0.31 and the “range of values for healthy grazing TBs” value ([1]; in vivo) was 0.18-0.67. The “detected range” value ([2]; in vivo) was 0.1 to 0.2 ng/mL.
For `CC(C)=CCC/C(C)=C/CC/C(C)=C/CC[C@]1(C)CCc2cc(O)c(C)c(C)c2O1` [γ-TOT, gamma-tocotrienol], the “mean value in healthy grazing TBs” value [1, 5] was 0.13 ± 0.36 ng/mL, the “median value in healthy grazing TBs” value [1, 5] was 0.02 ng/mL and the “range of values in healthy grazing TBs” value [1, 5] was 0.02 to 1.79 ng/mL. The “detected range” value ([2]; plasma, initial trials) was 5 to 10 ng/mL and the “difference in serum tocotrienol levels with time or disease” value ([4]; serum, eNAD vs control horses, over time) was “no significant difference”.
In the case of alpha-tocotrienol [α-TOT], the “mean value in healthy grazing TBs” value ([1]; in vivo) is reported as 0.31 ± 0.36 ng/mL, the “median value in healthy grazing TBs” value ([1]; in vivo) is reported as 0.15 ng/mL and the “range of values in healthy grazing TBs” value ([1]; in vivo) is reported as 0.004 to 1 ng/mL. For the same compound, the “detected range” value ([2]; in vivo) was 0.2 to 0.6 ng/mL and the “difference in serum tocotrienol levels with time or disease” value ([4]; in vivo) was “no significant difference”.
With `Cc1c(O)cc2c(c1C)OC(C)(CCC(=O)O)CC2` (stereo not shown) [γ-CEHC, gamma-carboxyethyl-hydroxychroman] the “mean value for healthy grazing TBs” value ([1]; in vivo) was 0.43±0.18, the “median value for healthy grazing TBs” value ([1]; in vivo) was 0.38 and the “range of values for healthy grazing TBs” value ([1]; in vivo) was 0.26-0.89. The “detected range” value ([2]; in vivo) was 0.2 to 0.6 ng/mL.
